# Data as given in patent publication US11291712B2, “Bacterial protein compositions and uses thereof” (The United States Government as Represented by the …, priority 2017, dated 2022).
# “Also recorded” adds a separate entry of the source.
# Legend:
# [1] = tested on: A. baumannii strain AB5075 VIR-O and AV-T variants; experiment: Antimicrobial killing assays (time-kill); format: cell-based, Acinetobacter baumannii; conditions: equal mixture of VIR-O and AV-T, 1 hour, CRAMP 10 μg/mL, lysozyme 10 mg/mL, LL-37 15 μg/mL, H2O2 0.01%
# Description: An equal mixture of VIR-O and AV-T variants were grown to early-log phase in 2 mL LB broth, or LB with tetracycline 6 μg/mL for strains with plasmids. A 5 μL aliquot of each culture was mixed together in 250 μL of 0.1× tryptone/yeast extract (1 g tryptone, 0.5 g yeast extract/liter). Cells were mixed by vortexing and serial dilutions were plated on 0.5×LB agar plates to assess the initial CFU's for both VIR-O and AV-T variants. Various antimicrobials were then added at the following final concentrations: CRAMP (10 μg/mL), lysozyme (10 mg/mL), LL-37 (15 μg/mL) and H2O2. (0.01%). Cells were treated for 1 hour and dilutions were plated on 0.5×LB agar plates to enumerate the surviving VIR-O and AV-T variants.
# [2] = tested on: A. baumannii strain AB5075 VIR-O and AV-T cells; experiment: Sensitivity to disinfectants; format: cell-based, Acinetobacter baumannii; conditions: BZT 0.01%, BAK 0.004%, CHG 0.008%; 30 min at room temperature
# Description: Overnight standing bacterial cultures at room temperature were sub-cultured in LB broth and grown at 37° C. with shaking to an OD600˜0.15. Nine hundred ninety microliters of culture were then added to tubes containing 10 μL of the appropriated disinfectants, BZT (Sigma-Aldrich), BAK (Sigma-Aldrich) and CHG (Sigma-Aldrich), respectively. Tubes were incubated at room temperature for 30 min. Cultures were then serially diluted and plated for CFU enumerations.
Molecule,survival of VIR-O (O) cells compared to AV-T (T) cells after treatment with the antimicrobial [1],survival of VIR-O (O) cells compared to AV-T (T) cells after treatment with the antimicrobial ([1]; listed as hydrogen peroxide),resistance of VIR-O (O) cells to the disinfectant compared to AV-T (T) cells [2]
"OO [H2O2, hydrogen peroxide]",resistant,VIR-O cells vastly outnumbered AV-T cells,–
CC(C)(C)CC(C)(C)c1ccc(OCCOCC[N+](C)(C)Cc2ccccc2)cc1 [benzethonium chloride],–,–,more resistant; also recorded: increased resistance
N=C(NCCCCCCNC(=N)NC(=N)Nc1ccc(Cl)cc1)NC(=N)Nc1ccc(Cl)cc1.O=C(O)[C@H](O)[C@@H](O)[C@H](O)[C@H](O)CO.O=C(O)[C@H](O)[C@@H](O)[C@H](O)[C@H](O)CO [chlorhexidine gluconate],–,–,more resistant; also recorded: increased resistance
"CRAMP: murine cationic antimicrobial peptide (ISRLAGLLRKGGEKIGEKLKKIGQKIKNFFQKLVPQPE; UniProt P51437 135-172, looked up)",resistant; also recorded: VIR-O cells vastly outnumbered AV-T cells,–,–
"LL-37: human antimicrobial peptide, the human orthologue of CRAMP",VIR-O cells also outnumbered AV-T; also recorded: resistant,–,–
benzalkonium chloride,–,–,more resistant; also recorded: increased resistance
lysozyme,resistant; also recorded: VIR-O cells vastly outnumbered AV-T cells,–,–
